Patent publication US9707126B2, “Systems and methods for corneal cross-linking with pulsed light” (Avedro, Inc., priority 2009, dated 2017)
Entries after “also recorded” stand apart in the source; their conditions may differ.

What was measured:
porcine corneal flaps = assay: Fluorescence of papain-digested corneal flaps treated with RFH2 solutions (Example 1)
Method: RFH2 was prepared by irradiation of Riboflavin solutions (with and without EDTA, 1% EDTA, 0.1% Riboflavin) and saturated with argon (to displace oxygen) in a shallow sealed quartz cuvette. Then, in the absence of additional UV light, porcine corneal flaps were immediately placed in those solutions. After 1-2 min this procedure was repeated with a fresh solution containing RFH2 several times. Corneal flaps then were washed with distilled water, digested with papain buffer, and their fluorescence was measured.

[1] = Absorbance of Riboflavin before and after UVA irradiation (FIG. 3); format: physicochemical; conditions: 0.2 mm light path
Method: Referring now to FIG. 3, a graph illustrating absorbance for 0.2 mm light path of an initial sample of Riboflavin versus absorbance for 0.2 mm light path of reduced Riboflavin RfH2 after being irradiated for 3 minutes at an irradiance of 30 mW/cm^2. At a wavelength of 445 nm, the absorbance of the initial sample is about 0.543, while the absorbance of the irradiated sample is about 0.340.

porcine cornea [2] = assay: Collagen linked fluorescence in cross-linked corneal flaps at depths of 100 μm and 200 μm (Example 2)
Method: Porcine whole globes (SiouxPreme Packing Co., Sioux City, Iowa; shipped in saline solution packed in ice) were warmed to room temperature (25° C.). The corneas were then de-epithelialized with a dulled scalpel blade and 0.1, 0.25, or 0.5% riboflavin solution in 0.9% saline was applied to the top of each cornea during 20 minutes before cross-linking Corneas were pan-corneally irradiated with a top hat beam (3% root mean square) for a determined amount of time with 365-nm light source (UV LED NCSU033B[T]; Nichia Co., Tokushima, Japan) at the chosen irradiance (3 or 30 mW/cm^2) which was measured with a power sensor (model PD-300-UV; Ophir, Inc., Jerusalem, Israel) at the corneal surface.
Corneal flaps (each 100 μm thick, one after another) were excised from the eyes with aid of Intralase femtosecond laser (Abbott Medical Optics, Santa Ana, Calif.). The average thickness of the corneal flaps was calculated as a difference between the measurements before and after the excision from the eyes with an ultrasonic Pachymeter (DGH Technology, Exton, Pa.). The flaps were washed with distilled water until Riboflavin in the washing waters was not detectable by absorbance measurement at 455 nm (Thermo Scientific Evolution 300/600 UV-Vis Spectrophotometer, Thermo Fisher Scientific, Waltham, Mass.). […]

porcine cornea [3] = assay: Cross-linking measured by fluorescence of digested corneal flaps at 450 nm (Example 5); conditions: 0.1% Riboflavin, humid oxygenated environment with pulsed UV light 30 mW/cm^2, 1.5 seconds on/3 seconds off, 9 minutes
Method: Pig eyes from an abattoir (SiouxPreme, Sioux City, Iowa) were rinsed in saline. Eyes were cleaned and the epithelium was removed. Eyes were placed on a stand in the middle of a large beaker filled part way with water with a tube bubbling compressed oxygen into the water. The oxygen was turned on at certain times during the experiment to create a humid oxygenated environment for the eye. Eyes were soaked for 20 minutes with 0.1% Riboflavin, dH2O solution in an incubator set at 37° C. by using a rubber ring to hold the solution on top. Corneas were pan-corneally irradiated with a top hat beam (3% root mean square) for a determined amount of time and irradiance (3 minutes CW at 30 mW/cm^2 with one drop of solution added every 30 seconds, or 30 minutes CW at 3 mW/cm^2 with one drop of solution added every minute, or 9 minutes for pulsed light—1.5 seconds on/3 seconds off—using a shutter system (Lambda SC Smart Shutter, Sutter Instrument, Novato, Calif.) at 30 mW/cm^2 with one drop of solution added every minute) with a 365-nm light source (UV LED NCSU033B[T]; Nichia Co., Tokushima, Japan). The irradiance was measured with a power sensor (model PD-300-UV; Ophir, Inc., Jerusalem, Israel) at the corneal surface. […]
FIG. 7A illustrates a graph of the amount of cross-linking measured by fluorescence of the digested corneal flaps at 450 nm. […]

porcine cornea [4] = assay: Force versus displacement of cross-linked corneal flaps, biaxial materials tester (Example 3)
Method: Upon arrival, porcine eyes have excess muscle tissue that was removed and placed in saline in the incubator (set to 37° C.) for 30 minutes. […] Eyes were removed from solution and physiological IOP was applied. Eyes were then placed under a UVA source and shutter system and irradiated according to the indicated protocol as shown in FIGS. 5A-5C. Riboflavin drops were applied every 1.5 minutes during UVA application. After being irradiated, the corneal thickness was measured with a pachymeter. The sample was then placed under the femto second laser and a ˜200 μm flap was cut. The flap was positioned in a biaxial materials tester (CS-BIO TESTER 5000, CellScale, Waterloo, ON Canada) and stretched until failure. The sample was then rinsed with distilled water and frozen for future papain digestion and fluorescence analysis.

porcine cornea [5] = assay: Fluorescence of digested 200 μm corneal flaps, continuous wave versus pulsed illumination (Example 4); conditions: for fluorescence at 455 nm: 0.1% Riboflavin, 200 μm flap
Method: In another corroborating experiment porcine whole globes (SiouxPreme Packing Co., Sioux City, Iowa; shipped in saline solution packed in ice) were warmed to room temperature (25 C). The corneas were then de-epithelialized with a dulled scalpel blade and 0.1, Riboflavin solution in 0.9% saline was applied to the top of each cornea during 20 minutes before cross-linking in an incubator. Corneas were pan-corneally irradiated with a top hat beam (3% root mean square) for a determined amount of time with 365-nm light source (UV LED NCSU033B[T]; Nichia Co., Tokushima, Japan) at the chosen irradiance of 30 mW/cm^2 with either continuous wave illumination or pulsed illumination 3 seconds on/3 Seconds off. Corneal flaps (200 μm thick) were excised from the eyes with aid of Intralase femtosecond laser (Abbott Medical Optics, Santa Ana, Calif.). The average thickness of the corneal flaps was calculated as a difference between the measurements before and after the excision from the eyes with an ultrasonic Pachymeter (DGH Technology, Exton, Pa.).
The flaps were washed with distilled water until Riboflavin in the washing waters was not detectable by absorbance measurement at 455 nm (Thermo Scientific Evolution 300/600 UV-Vis Spectrophotometer, Thermo Fisher Scientific, Waltham, Mass.). […] Papain digests were centrifuged for 30 seconds at 2200×G (Mini centrifuge 05-090-100, Fisher Scientific), diluted 3 times with 1×PBS solution and fluorescence of the solutions was measured with excitation of λex=360 nm in a QM-40 Spectrofluorometer (Photon Technology Int., London, Ontario, Canada).
The fluorescence of the papain buffer was taken into account by measuring fluorescence in the absence of tissue and subtracting this value from the fluorescence of the samples. The results seen below corroborate that the amount of fluorescence seen which is directly related to the amount of cross-linking is greater for the pulsed vs. continuous wave illumination in nearly the same proportion as the biomechanical measurements taken of the same flaps.

| SMILES | fluorescence of corneal samples (porcine corneal flaps; Riboflavin solution irradiated with a reducing agent, EDTA (1% EDTA, 0.1% Riboflavin)) | fluorescence of corneal samples versus samples washed with unexposed Riboflavin (porcine corneal flaps; preliminary UVA-exposed Riboflavin solutions, no further UV light) | absorbance at 445 nm ([1]; after irradiation for 3 minutes at 30 mW/cm^2) | corneal fluorescence at first 100 μm versus next 100 μm (porcine cornea [2]; 0.1, 0.25 or 0.5% Riboflavin, 3 or 30 mW/cm^2, dose 5.4 J/cm^2) | corneal fluorescence relative to non-cross-linked samples (porcine cornea [2]; first 100 μm, 0.1% Riboflavin solution, 3 mW/cm^2, dose 5.4 J/cm^2) | absorbance at 445 nm ([1]; initial sample) | amount of cross-linking by fluorescence of digested flaps at 450 nm (FIG. 7A) (porcine cornea [3]) | biomechanical stiffness (FIG. 5C) (porcine cornea [4]; 0.1% Riboflavin, 30 mW/cm^2 pulsed 3 seconds on/4.5 seconds off and 3 seconds on/3 seconds off) | biomechanical stiffness (FIG. 5C) (porcine cornea [4]; 0.25% Riboflavin, 3 mW/cm^2 continuous wave) | biomechanical stiffness (FIG. 7B) (porcine cornea [4]; 3 mW/cm^2 and 30 mW/cm^2 continuous wave illumination, versus pulsed with oxygen) | biomechanical stiffness (FIG. 5C) (porcine cornea [4]; 30 mW/cm^2 pulsed, 3 seconds on, 1.5, 0.75 and 0.25 seconds off (samples 5, 6, 7)) | biomechanical stiffness (FIG. 5C) (porcine cornea [4]; sample 1: 0.1% Riboflavin, 3 mW/cm^2 continuous wave) | biomechanical stiffness (FIG. 5B) (porcine cornea [4]; sample 2: 0.1% Riboflavin, 30 mW/cm^2 pulsed, 4.5 second exposure cycles, 3 seconds off) | biomechanical stiffness (FIG. 5A) (porcine cornea [4]; sample 2: 0.25% Riboflavin, 3 mW/cm^2 continuous wave vs. sample 3 at 30 mW/cm^2, 5.4 J/cm^2) | biomechanical stiffness (FIG. 7B) (porcine cornea [4]; sample 3: 30 mW/cm^2 pulsed light with oxygen, 3 seconds on/3 seconds off) | biomechanical stiffness (FIG. 5A) (porcine cornea [4]; sample 5: 30 mW/cm^2 continuous wave, total 35.1 J/cm^2 dose) | biomechanical stiffness (FIG. 5A) (porcine cornea [4]; sample 8: 0.1% Riboflavin, 30 mW/cm^2 pulsed 3 seconds on/3 seconds off) | fluorescence at 455 nm (porcine cornea [5]; 30 mW/cm^2 continuous illumination) | fluorescence at 455 nm (porcine cornea [5]; 30 mW/cm^2 pulsed light 3 seconds on/3 seconds off) | fluorescence at 455 nm, continuous less than pulsed (porcine cornea [5]; 30 mW/cm^2 continuous versus pulsed 3 seconds on/3 seconds off) |
| --- | --- | --- | --- | --- | --- | --- | --- | --- | --- | --- | --- | --- | --- | --- | --- | --- | --- | --- | --- | --- |
| Cc1cc2c(cc1C)N(C[C@H](O)[C@H](O)[C@H](O)CO)c1[nH]c(=O)[nH]c(=O)c1N2 [RfH2, Leuco-Deuteroflavin] | highest | higher | about 0.340 | – | – | – | – | – | – | – | – | – | – | – | – | – | – | – | – | – |
| Cc1cc2nc3c(=O)[nH]c(=O)nc-3n(C[C@H](O)[C@H](O)[C@H](O)CO)c2cc1C [Riboflavin] | – | – | – | greater at first 100 μm than at the next 100 μm | highest corneal fluorescence | about 0.543 | greatly increases the amount of cross-linking | slightly lower biomechanical stiffness | lowest biomechanical stiffness out of samples 1 and 3-7 | lower biomechanical stiffness | in descending order | highest biomechanical stiffness | slightly lower biomechanical stiffness than samples 3 or 1 | dissimilar biomechanical stiffness | highest biomechanical stiffness | higher than that for samples 6, 7, 3, 4, and 1; also recorded: lower than that for sample 2 | higher than both the samples 6 and 7 | about 12000 counts/s | about 20,000 counts/s | about 40% |
